From patent publication US11999727B2 (Tango Therapeutics, Inc., priority 2020, dated 2024)

Key:
[1] = test system: HAP1 MTAP-deleted cell line; assay: Viability assay, MTAP-deleted cell line; assay type: cell-based; settings: Homo sapiens, HAP1, viability assay, MTAP-deleted cell line; read-out: HAP1 MTAP deleted viability
Text: Table 1 additionally indicates IC50 values in a viability assay for the MTAP-deleted cell line (column 10), indicating the effect of treatment with compound on cell survival.

PRMT5 [2] = molecular target: T1, PRMT5 (Homo sapiens, UniProt O14744); assay: PRMT5 biochemical IC50 assay with MTA as cofactor; settings: PRMT5, MTA as cofactor; read-out: MTA IC50
T1 construct: purchased Viva (custom protein)

PRMT5 [3] = molecular target: T1, PRMT5; assay: PRMT5 biochemical IC50 assay with no cofactor; settings: PRMT5, no cofactor; read-out: No Cofactor/rel IC50
Text: Table 1 indicates IC50 values (μM) against PRMT5 for exemplary compounds in the presence of SAM as cofactor, with no cofactor, and with MTA as cofactor, respectively (columns 4-6). […] Ki values can be calculated from the IC50 values as described in the Examples section. As detailed in the Examples section, for the assay performed in the presence of SAM, IC50=Ki×1.5 (Ki=IC50/1.5).

[4] = test system: HAP1 MTAP-intact cell line; assay: SDMA in-cell western assay, HAP1 MTAP-intact; assay type: cell-based; settings: Homo sapiens, HAP1, SDMA in-cell western, HAP1 MTAP-intact; read-out: MTAP HAP1 intact IC50
Procedure, shortened: (§1)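 Isogenic HAP1 pair: the MTAP-intact line expresses endogenous MTAP, and the deleted line is MTAP-null. Symmetric dimethylarginine was detected by in-cell western and IC50 values derived for each line.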

PRMT5 [5] = molecular target: T1, PRMT5; assay: PRMT5 biochemical IC50 assay with SAM as cofactor; settings: PRMT5, SAM as cofactor; read-out: SAM IC50
[6] = test system: HAP1 MTAP-deleted cell line; assay: SDMA in-cell western assay, HAP1 MTAP-deleted; assay type: cell-based; settings: for IC50: Homo sapiens, HAP1, SDMA in-cell western, HAP1 MTAP-deleted; for MTAP intact/deleted ratio: SDMA in-cell western
Procedure, shortened: as §1

[7] = read-out: HAP 1 MTAP deleted IC50
[8] = IC50 ratio HAP1 MTAP-intact / HAP1 MTAP-deleted
[9] = read-out: HAP1 MTAP deleted IC50
[10] = IC50 ratio HAP1 MTAP-intact vs HAP1 MTAP-deleted

T1 sequence (O14744 whole entry): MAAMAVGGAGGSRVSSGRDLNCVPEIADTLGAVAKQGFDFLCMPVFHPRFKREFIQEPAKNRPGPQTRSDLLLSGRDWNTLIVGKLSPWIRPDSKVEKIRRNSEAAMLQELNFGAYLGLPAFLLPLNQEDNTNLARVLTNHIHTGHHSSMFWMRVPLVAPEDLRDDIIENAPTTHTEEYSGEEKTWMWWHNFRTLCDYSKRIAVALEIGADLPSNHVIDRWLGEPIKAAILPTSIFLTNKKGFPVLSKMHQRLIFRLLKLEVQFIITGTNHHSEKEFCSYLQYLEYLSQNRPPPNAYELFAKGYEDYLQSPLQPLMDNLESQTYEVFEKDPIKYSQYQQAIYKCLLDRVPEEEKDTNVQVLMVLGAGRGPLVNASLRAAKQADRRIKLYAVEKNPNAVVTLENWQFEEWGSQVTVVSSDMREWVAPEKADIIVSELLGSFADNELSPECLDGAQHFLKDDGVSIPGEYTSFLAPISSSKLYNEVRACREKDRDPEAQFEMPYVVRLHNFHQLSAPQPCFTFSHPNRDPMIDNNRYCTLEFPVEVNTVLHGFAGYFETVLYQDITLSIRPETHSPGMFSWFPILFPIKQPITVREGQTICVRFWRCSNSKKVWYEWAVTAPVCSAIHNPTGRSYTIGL
T1 sequence (Q9BQA1 whole entry partner): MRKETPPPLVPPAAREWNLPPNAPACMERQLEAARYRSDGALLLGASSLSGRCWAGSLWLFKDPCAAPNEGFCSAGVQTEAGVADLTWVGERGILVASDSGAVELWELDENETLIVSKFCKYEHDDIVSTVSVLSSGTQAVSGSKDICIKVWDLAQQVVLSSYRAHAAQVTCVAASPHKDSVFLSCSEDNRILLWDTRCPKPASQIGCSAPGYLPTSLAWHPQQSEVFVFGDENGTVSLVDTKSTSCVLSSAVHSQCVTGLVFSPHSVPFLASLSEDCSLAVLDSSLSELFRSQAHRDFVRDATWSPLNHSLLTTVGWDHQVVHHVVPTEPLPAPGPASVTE

Row | SMILES | IC50 [1] | IC50 (PRMT5 [2]) | IC50 (PRMT5 [3]) | IC50 [4] | IC50 (PRMT5 [5]) | IC50 [6, 7] | MTAP intact/deleted ratio [6, 8] | IC50 [6, 9] | MTAP intact/deleted ratio [6, 10]
1 | C[C@H]1CC[C@H](c2ccc3sc(C(F)(F)F)nc3c2)N(C(=O)C(=O)Nc2cncc(C(N)=O)c2)C1 (single isomer, unassigned) [Compound 1023] | < 1 µM | < 0.05 µM | < 0.05 µM | 0.1 to 1 µM | 0.05 to 0.5 µM | < 0.1 µM | A (an IC50 ratio greater than or equal to 10 fold) |  | 
2 | COc1ncc(NC(=O)C(=O)N2C[C@@H](C)CC[C@@H]2c2ccc3sc(C(F)(F)F)nc3c2)cc1C(N)=O (single isomer, unassigned) [Compound 1024] | < 1 µM | < 0.05 µM | < 0.05 µM | 0.1 to 1 µM | 0.05 to 0.5 µM | < 0.1 µM | A (an IC50 ratio greater than or equal to 10 fold) |  | 
3 | Cc1cc(NC(=O)C(=O)N2C[C@H](C)CC[C@H]2c2cscn2)cnc1N (single isomer, unassigned) [Compound 1028] | > 10 µM | > 0.5 µM | > 0.5 µM | > 1 µM | > 0.5 µM | > 1 µM | C (an IC50 ratio of less than 3 fold) |  | 
4 | C[C@@H]1CC[C@@H](c2ccc3sc(C(F)(F)F)nc3c2)N(C(=O)C(=O)Nc2cncc(C(N)=O)c2)C1 (single isomer, unassigned) [Compound 1029] | > 10 µM | > 0.5 µM | > 0.5 µM | > 1 µM | > 0.5 µM | > 1 µM | B (an IC50 ratio greater than or equal to 3 fold but lower than 10 fold) |  | 
5 | COc1ncc(NC(=O)C(=O)N2C[C@@H](C)CC[C@@H]2c2cscn2)cc1C(N)=O (single isomer, unassigned) [Compound 1033] | > 10 µM | > 0.5 µM | > 0.5 µM | > 1 µM | > 0.5 µM | > 1 µM | B (an IC50 ratio greater than or equal to 3 fold but lower than 10 fold) |  | 
6 | Cc1cc(NC(=O)C(=O)N2C[C@@H](C)CC[C@@H]2c2ccc3c(cnn3C)c2)cnc1N (single isomer, unassigned) [Compound 1037] | > 10 µM | > 0.5 µM | > 0.5 µM | > 1 µM | > 0.5 µM | 0.1 to 1 µM | A (an IC50 ratio greater than or equal to 10 fold) |  | 
7 | Cc1cc(NC(=O)C(=O)N2C[C@@H](C)CC[C@@H]2c2ccc3nn(C)cc3c2)cnc1N (single isomer, unassigned) [Compound 1040] | > 10 µM | > 0.5 µM | > 0.5 µM | > 1 µM | > 0.5 µM | 0.1 to 1 µM | A (an IC50 ratio greater than or equal to 10 fold) |  | 
8 | COc1ncc(NC(=O)C(=O)N2C[C@H](C)CC[C@H]2c2cscn2)cc1C(N)=O (single isomer, unassigned) [Compound 1042] | 1 to 10 µM | < 0.05 µM | 0.05 to 0.5 µM | > 1 µM | 0.05 to 0.5 µM | < 0.1 µM | A (an IC50 ratio greater than or equal to 10 fold) |  | 
9 | Cc1cc(NC(=O)C(=O)N2C[C@H](C)CC[C@H]2c2ccc3nn(C)cc3c2)cnc1N (single isomer, unassigned) [Compound 1044] | < 1 µM | < 0.05 µM | < 0.05 µM | 0.1 to 1 µM | 0.05 to 0.5 µM | < 0.1 µM | A (an IC50 ratio greater than or equal to 10 fold) |  | 
10 | Cc1cncc(NC(=O)C(=O)N2C[C@@H](C)CC[C@H]2c2cccc(F)c2)c1 (single isomer, unassigned) [Compound 1080] | > 10 µM | > 0.5 µM | > 0.5 µM | > 1 µM | > 0.5 µM |  |  | > 1 µM | C (an IC50 ratio of less than 3 fold)
11 | Cc1cc(NC(=O)C(=O)N2C[C@@H](C)CC[C@@H]2c2ccc(N)cc2)cnc1N (single isomer, unassigned) [Compound 1081] | > 10 µM | > 0.5 µM | > 0.5 µM | > 1 µM | > 0.5 µM |  |  | > 1 µM | B (an IC50 ratio greater than or equal to 3 fold but lower than 10 fold)
12 | C[C@@H]1CC[C@@H](c2cc(F)cc(Cl)c2)N(C(=O)C(=O)Nc2cncc(C(N)=O)c2)C1 (single isomer, unassigned) [Compound 1084] | > 10 µM | > 0.5 µM | > 0.5 µM | > 1 µM | > 0.5 µM |  |  | > 1 µM | C (an IC50 ratio of less than 3 fold)
13 | Cc1cc(NC(=O)C(=O)N2C[C@H](C)[C@@H](OC(C)C)C[C@H]2c2ccccc2)cnc1N (single isomer, unassigned) [Compound 1088] | < 1 µM | < 0.05 µM | < 0.05 µM | 0.1 to 1 µM | 0.05 to 0.5 µM |  |  | < 0.1 µM | A (an IC50 ratio greater than or equal to 10 fold)
14 | CCc1cc(NC(=O)C(=O)N2C[C@H](C)[C@H](OC)C[C@H]2c2ccc(N3CCN(C)CC3)cc2)cnc1N (single isomer, unassigned) [Compound 1089] | < 1 µM | < 0.05 µM | 0.05 to 0.5 µM | 0.1 to 1 µM | 0.05 to 0.5 µM |  |  | < 0.1 µM | A (an IC50 ratio greater than or equal to 10 fold)
15 | CCc1cc(NC(=O)C(=O)N2C[C@H](C)CC[C@H]2c2ccc(N3CCN(CC)CC3)cc2)cnc1N (single isomer, unassigned) [Compound 1097] | < 1 µM | < 0.05 µM | < 0.05 µM | 0.1 to 1 µM | 0.05 to 0.5 µM |  |  | < 0.1 µM | A (an IC50 ratio greater than or equal to 10 fold)
16 | CCc1cc(NC(=O)C(=O)N2C[C@@H](C)CC[C@@H]2c2ccc(N3CCN(C)CC3)nc2)cnc1N (single isomer, unassigned) [Compound 1103] | < 1 µM | < 0.05 µM | < 0.05 µM | 0.1 to 1 µM | 0.05 to 0.5 µM |  |  | < 0.1 µM | A (an IC50 ratio greater than or equal to 10 fold)
17 | COc1ncc(NC(=O)C(=O)N2C[C@@H](C)CC[C@@H]2c2ccc3sc(C4CC(C)(C)N(C)C(C)(C)C4)nc3c2)cc1C(N)=O (single isomer, unassigned) [Compound 1108] | < 1 µM | < 0.05 µM | < 0.05 µM | < 0.1 µM | < 0.05 µM |  |  | < 0.1 µM | A (an IC50 ratio greater than or equal to 10 fold)
18 | COc1ncc(NC(=O)C(=O)N2C[C@@H](C)CC[C@@H]2c2ccc3sc(C4(CN(C)C)CC4)nc3c2)cc1C(N)=O (single isomer, unassigned) [Compound 1109] | < 1 µM | < 0.05 µM | < 0.05 µM | 0.1 to 1 µM | < 0.05 µM |  |  | < 0.1 µM | A (an IC50 ratio greater than or equal to 10 fold)
19 | CCc1cc(NC(=O)C(=O)N2CC(C)CCC2c2ccc(N3CCC4C(CCCN4C)C3)cc2)cnc1N (single isomer, unassigned) [Compound 1111] | < 1 µM | < 0.05 µM | < 0.05 µM | 0.1 to 1 µM | 0.05 to 0.5 µM |  |  | < 0.1 µM | A (an IC50 ratio greater than or equal to 10 fold)
20 | CCc1cc(NC(=O)C(=O)N2C[C@H](C)CC[C@H]2c2ccc(N3CCN(C)CC3)cc2)cnc1N (single isomer, unassigned) [Compound 1116] | > 10 µM | > 0.5 µM | > 0.5 µM | > 1 µM | > 0.5 µM |  |  | > 1 µM | 
21 | C[C@H]1CC[C@H](c2cccc(Cl)c2)N(C(=O)C(=O)Nc2cnc(N)c(C3CC3)c2)C1 (single isomer, unassigned) [Compound 1119] | < 1 µM | < 0.05 µM | < 0.05 µM | 0.1 to 1 µM | 0.05 to 0.5 µM |  |  | < 0.1 µM | A (an IC50 ratio greater than or equal to 10 fold)
22 | Cc1cc(NC(=O)C(=O)N2C[C@H](C)CC[C@H]2c2cc3cn[nH]c3s2)cnc1N (single isomer, unassigned) [Compound 1120] | > 10 µM | > 0.5 µM | > 0.5 µM | > 1 µM | > 0.5 µM |  |  | > 1 µM | 
23 | Cc1cc(NC(=O)C(=O)N2C[C@H](C)CC[C@H]2c2cccc(N3CCN(C)CC3)c2)cnc1N (single isomer, unassigned) [Compound 1121] | > 10 µM | > 0.5 µM | > 0.5 µM | > 1 µM | > 0.5 µM |  |  | > 1 µM | 
